Reference: patent US7914831B2, “Synergistic anti-inflammatory pharmaceutical compositions and related methods using curcuminoids or methylxanthines” (priority 2004, dated 2011)
≈ marks a conversion by molar mass, not a printed value.

System: PGE2 production
Type: cell-based, murine
Conditions: Mus musculus, RAW264.7; RAW 264.7, test material 60 min prior to 1.0 μg/mL LPS, PGE2 18 h post stimulation; read-out: IC50 (median inhibitory concentration for PGE2)

For `Cn1c(=O)c2c(ncn2C)n(C)c1=O` [Caffeine, caffeine], which IC50 is on record?
The IC50 was 25 µg/mL (≈ 129 µM).
